# ChEMBL document CHEMBL5120946, “Bivalent BET Bromodomain Inhibitors Confer Increased Potency and Selectivity for BRDT via Protein Conformational Plasticity” (J Med Chem, 2022)
# What was measured:
# [1] = target: T1, Bromodomain-containing protein 4 (Homo sapiens, UniProt O60885); experiment: Inhibition of recombinant human BRD4-1 (44 to 168 residues) expressed in bacterial expression system by bromoscan assay
# [2] = target: T1, Bromodomain-containing protein 4; experiment: Inhibition of recombinant human BRD4-2 (333 to 460 residues) expressed in bacterial expression system by bromoscan assay
# [3] = target: T1, Bromodomain-containing protein 4; experiment: Binding affinity to BRD4-T (unknown origin)
# [4] = target: T2, Bromodomain testis-specific protein (Homo sapiens, UniProt Q58F21); experiment: Inhibition of recombinant human BRDT-1 (21 to 137 residues) expressed in bacterial expression system by bromoscan assay
# [5] = target: T2, Bromodomain testis-specific protein; experiment: Inhibition of recombinant human BRDT-2 (250 to 382 residues) expressed in bacterial expression system by bromoscan assay
# [6] = target: T2, Bromodomain testis-specific protein; experiment: Binding affinity to N-terminal hexa-histidine tagged BRDT-T (2 to 416 residues) (unknown origin) expressed in Escherichia coli BL21(DE3) cells
# MM1.S = experiment: Growth inhibition of human MM1.S cells incubated for 72 hrs by CellTiter-Blue assay; format: functional, cell-based
# [7] = Metabolic stability in pooled mouse liver microsomes assessed as half life; format: ADME, Microsome; details: for t1/2: microsomes; for half-life: pooled mouse liver microsomes
# [8] = Metabolic stability in pooled human liver microsomes assessed as half life; format: ADME, Microsome; details: for t1/2: microsomes; for half-life: pooled human liver microsomes
# [9] = target: T1, Bromodomain-containing protein 4; experiment: Inhibition of BRD4 in human MM1.S cells assessed as reduction in c-MYC level after 6 hrs by Western blot analysis; format: cell-based
# Homo sapiens = species on record: Homo sapiens; experiment: Selectivity ratio of Kd for BRD4 (unknown origin) to Kd for BRDT (unknown origin)
# [10] = Permeability in MDCK-MDR1 cells; format: ADME, cell-based, Canis lupus familiaris; details: dog; for Papp: MDCK-MDR1, read-out: permeability
Structure (SMILES),Kd [1],Kd [2],Kd [3],Kd [4],Kd [5],Kd [6],IC50 (MM1.S),IC50 [9],Selectivity ratio (Homo sapiens),half-life [8],half-life [7],Papp [10],permeability ([10]; mdck-mdr1),t1/2 [7],t1/2 [8]
Cc1cnc(Nc2ccc(C(=O)NC3CCN(C(=O)CCOCCOCCOCCOCCC(=O)N4CCC(NC(=O)c5ccc(Nc6ncc(C)c(Nc7ccc(Cl)c(NS(=O)(=O)C(C)(C)C)c7)n6)cc5F)CC4)CC3)c(F)c2)nc1Nc1ccc(Cl)c(NS(=O)(=O)C(C)(C)C)c1,6.4 nM,3 nM,2.8 nM,0.92 nM,1.7 nM,1.55 nM,34 nM,,,,,,,4.1 min,5.6 min
Cc1cnc(Nc2ccc(C(=O)NC3CCN(C(=O)CCOCCOCCOCCOCCOCCC(=O)N4CCC(NC(=O)c5ccc(Nc6ncc(C)c(Nc7ccc(Cl)c(NS(=O)(=O)C(C)(C)C)c7)n6)cc5F)CC4)CC3)c(F)c2)nc1Nc1ccc(Cl)c(NS(=O)(=O)C(C)(C)C)c1,4.6 nM,1.5 nM,1.6 nM,0.6 nM,2.2 nM,0.8 nM,30 nM,,,,,,,30 min,10 min
Cc1cnc(Nc2ccc(C(=O)NC3CCNCC3)c(F)c2)nc1Nc1cc(NS(=O)(=O)C(C)(C)C)cc(C(=O)NCCOCCOCCOCCC(=O)N2CCC(NC(=O)c3ccc(Nc4ncc(C)c(Nc5ccc(Cl)c(NS(=O)(=O)C(C)(C)C)c5)n4)cc3F)CC2)c1,6 nM,3.2 nM,1.7 nM,0.16 nM,3.1 nM,1.3 nM,1100 nM,,12,2.2 min,,,,55 min,
Cc1cnc(Nc2ccc(C(=O)NC3CCN(C(=O)COCCOCC(=O)N4CCC(NC(=O)c5ccc(Nc6ncc(C)c(Nc7ccc(Cl)c(NS(=O)(=O)C(C)(C)C)c7)n6)cc5F)CC4)CC3)c(F)c2)nc1Nc1ccc(Cl)c(NS(=O)(=O)C(C)(C)C)c1,4 nM,3.1 nM,3.6 nM,0.84 nM,3.5 nM,0.59 nM,44 nM,,,,,,,,

# Second part, led by results:
Kd [1],Kd [2],Kd [3],Kd [4],Kd [5],Kd [6],IC50 (MM1.S),IC50 [9],Selectivity ratio (Homo sapiens),half-life [8],half-life [7],Papp [10],permeability ([10]; mdck-mdr1),Structure (SMILES),t1/2 [7],t1/2 [8]
335 nM,,,875 nM,,,58 nM,> 1000 nM,,,,,,Cn1cc(-c2cccc(N3CCCC3=O)c2)c2ccccc2c1=O,,
28 nM,9.1 nM,4.8 nM,0.6 nM,8.4 nM,2.6 nM,59 nM,,,,,,,Cc1cnc(Nc2ccc(C(=O)NC3CCN(C(=O)COCCOCCOCC(=O)N4CCC(NC(=O)c5ccc(Nc6ncc(C)c(Nc7ccc(Cl)c(NS(=O)(=O)C(C)(C)C)c7)n6)cc5F)CC4)CC3)c(F)c2)nc1Nc1ccc(Cl)c(NS(=O)(=O)C(C)(C)C)c1,,
,,,77 nM,,,,,,< 2.3 min,< 2.3 min,0.13 ×10⁻⁶ cm/s,,CCS(=O)(=O)Nc1cccc(-c2cn(C)c(=O)c3ccccc23)c1,,
,20 nM,6.7 nM,9.5 nM,25 nM,18 nM,61 nM,,,,,,,Cc1cnc(Nc2ccc(C(=O)NC3CCN(C)CC3)c(F)c2)nc1Nc1ccc(Cl)c(NS(=O)(=O)C(C)(C)C)c1,,
0.095 nM,0.32 nM,0.29 nM,0.089 nM,5.5 nM,0.058 nM,,,,315 min,11 min,15 ×10⁻⁶ cm/s,,CCS(=O)(=O)Nc1ccc(OCCOCCOCCOCCOc2ccc(NS(=O)(=O)CC)cc2-c2cn(C)c(=O)c3ccccc23)c(-c2cn(C)c(=O)c3ccccc23)c1,,
3.6 nM,3.7 nM,2.3 nM,5 nM,12 nM,6 nM,8.5 nM,,,,,,2.7 10^-6 cm/s,CCS(=O)(=O)Nc1ccc(Oc2ccc(Cl)cc2)c(-c2cn(C)c(=O)c3ccccc23)c1,74 min,299 min
